Laboratory results taken from patent US20230015949A1, “NEISSERIA TREATMENT USING CANNABINOIDS” (priority 2019, published 2023).
≈ marks a conversion by molar mass, not a printed value. Entries after “also recorded” stand apart in the source; their conditions may differ. Where two headings read alike, the source gives them in different places.

Legend:
Neisseria gonorrhoeae = assay: Broth microdilution MIC assay, 30 isolates (Example 2); format: cell-based
Description: In this study, the in vitro spectrum of activity of CBD was determined against 30 isolates comprised of reference strains from the WHO, isolates from the CDC antibiotic resistance bank, and clinical isolates from the Micromyx (MMX) repository, with different resistance phenotypes. Assays were conducted following guidelines recommended by the Clinical and Laboratory Standards Institute (CLSI; 1, 2) with the exception that broth microdilution was used instead of agar dilution.
Stock solutions of all compounds were prepared on the day of testing using solvents recommended by CLSI. Stock solutions of all compounds were made at 101× the final testing concentration. CBD was supplied by Cerilliant (Round Rock, Tex.) as a 1 mg/mL methanolic solution which was stored at −20° C. after receipt. Prior to testing, using a 5 mL aliquot of the CBD methanolic solution, the methanol was dried off and the residual CBD was resuspended in 774 μL DMSO resulting in a 6.464 mg/mL solution.
The test organisms evaluated in this study consisted of Neisseria gonorrhoeae isolates from the Micromyx repository and reference isolates from the American Type Culture Collection (ATCC; Manassas, Va.), Centers for Disease Control and Prevention (CDC; Atlanta, Ga.) or the National Collection of Type Cultures (NCTC; Public Health England, Salisbury, UK). Upon initial receipt at Micromyx, the organisms were sub-cultured onto an appropriate agar medium.
(§1) Following incubation, colonies were harvested from these plates and cell suspensions prepared and frozen at −80° C. with a cryoprotectant. Prior to testing, N. gonorrhoeae isolates were streaked onto Chocolate Agar [Becton Dickinson, (BD), Sparks, Md.; Lot No. 922807]; Staphylococcus aureus ATCC 29213 tested for quality control (QC) purposes was streaked onto Trypticase Soy Agar with 5% Sheep Blood (TSA II; BD; Lot No. 9219399).
For N. gonorrhoeae, a modified medium described by the ATCC as capable of supporting the growth of N. gonorrhoeae (Neisseria peptone medium) was used for the broth microdilution MIC assay. This medium contained 15 g Oxoid Special Peptone (Lot No. 1280296; Oxoid, Hampshire, UK), 1 g corn starch (Lot No. AD-13344-14; Ward's Science; Rochester, N.Y.), 5 g NaCl (Lot No. 57897; VWR, Radnor, Pa.), 4 g K2HPO4 (Lot No. SLBT7061; Sigma), and 1 g KH2PO4 (Lot No. SLBC1921V; Sigma). After autoclaving, the medium was centrifuged at 5,000×g for 10 min, the supernatant was passed through a 0.45 μm filter, and IsoVitaleX supplement (Lot No. 8323954; BD) was added at 1% (v/v).
(§2) MIC values were determined using a broth microdilution procedure described by CLSI (1, 2). Automated liquid handlers (Multidrop 384, Labsystems, Helsinki, Finland; Biomek 2000 and Biomek FX, Beckman Coulter, Fullerton Calif.) were used to conduct serial dilutions and liquid transfers.
(§3) To prepare the drug mother plates, which would provide the serial drug dilutions for the replicate daughter plates, the wells of columns 2 through 12 of standard 96-well microdilution plates (Costar 3795) were filled with 150 μl of the designated diluent for each row of drug. The test articles and comparator compounds (300 μl at 100× the highest concentration to be tested) were dispensed into the appropriate wells in column 1. The Biomek 2000 was then used to make 2-fold serial dilutions in the mother plates from column 1 through column 11. The wells of column 12 contained no drug and served as the organism growth control wells for the assay.
(§4) The daughter plates were loaded with 190 μL per well of the appropriate test medium for the tested organism using the Multidrop 384. The daughter plates were completed on the Biomek FX instrument which transferred 2 μL of drug solution from each well of a mother plate to the corresponding well of each daughter plate in a single step. Daughter plates for the testing of anaerobes were allowed to pre-reduce in the Bactron II anaerobe chamber for 2 hr prior to inoculation.

[1] = system: Staphylococcus aureus ATCC 29213; assay: Broth microdilution MIC assay, quality control strain (Example 2); format: cell-based; details: ATCC29213, S. aureus ATCC 29213 (QC), CAMHB
Description: as §1
Cation-adjusted Mueller Hinton broth (CAMHB; BD; Lot No. 9019592) was used for MIC testing of S. aureus ATCC 29213 for QC purposes.
as §2, §3, §4
A standardized inoculum of each test organism was prepared per CLSI methods (1, 2). The inoculum for each organism was dispensed into sterile reservoirs divided by length (Beckman Coulter), and the Biomek 2000 was used to inoculate the plates. Daughter plates were placed on the Biomek 2000 work surface in reverse orientation so that inoculation took place from low to high drug concentration. Anaerobic organisms were inoculated by hand in the Bactron II anaerobic chamber. Bacterial plates were then inoculated with 10 μL of the inoculum resulting in a final cell density of approximately 5×10^5 CFU/mL.
Plates were stacked 3 to 4 high, covered with a lid on the top plate and placed in plastic bags. […] The MIC was read and recorded as the lowest concentration of drug that inhibited visible growth of the organism.

[2] = 30 isolates of N. gonorrhoeae, broth microdilution, MIC distribution
[3] = 30 isolates, broth dilution assay, MIC distribution (Table 6)

C=C(C)C1CCC(C)=CC1c1c(O)cc(CCCCC)cc1O (stereo not drawn) [CBD, 2-[3-methyl-6-(1-methylethenyl)-2-cyclohexen-1-yl]-5-pentyl-1,3-benzenediol]
Effect of the resistance phenotype of the isolate on activity (Neisseria gonorrhoeae; 30 isolates of N. gonorrhoeae with different resistance phenotypes): not affected by the resistance phenotype of the isolate; also recorded: independent of the resistance phenotype of the tested isolate
Number of isolates at MIC value 0.015 μg/mL (Neisseria gonorrhoeae; [2]): 0
Number of isolates at MIC value 0.03 μg/mL (Neisseria gonorrhoeae; [2]): 0
Number of isolates at MIC value 0.06 μg/mL (Neisseria gonorrhoeae; [2]): 0
Number of isolates at MIC value 0.5 μg/mL (Neisseria gonorrhoeae; [2]): 3
Number of isolates at MIC value 1 μg/mL (Neisseria gonorrhoeae; [2]): 10
Number of isolates at MIC value 2 μg/mL (Neisseria gonorrhoeae; [2]): 15
Number of isolates at MIC value 4 μg/mL (Neisseria gonorrhoeae; [2]): 0
Number of isolates at MIC value 8 μg/mL (Neisseria gonorrhoeae; [2]): 1
Number of isolates at MIC value >8 μg/mL (Neisseria gonorrhoeae; [2]): 1
Number of isolates at MIC value >32 μg/mL (Neisseria gonorrhoeae; [2]): 1
Number of isolates at MIC value […] (Neisseria gonorrhoeae; [2]): 0
Number of isolates at MIC 0.08 μg mL^−1 (Neisseria gonorrhoeae; [3]): 0
Number of isolates at MIC ≤0.004 μg mL^−1 (Neisseria gonorrhoeae; [3]): 0
MIC (Neisseria gonorrhoeae; Neisseria gonorrhoeae, ATCC49226, N. gonorrhoeae ATCC 49226 (QC), broth microdilution, read-out: MIC): 2 µg/mL (≈ 6.36 µM)
MIC (Neisseria gonorrhoeae; Neisseria gonorrhoeae, N. gonorrhoeae CDC 0165 (CIP-R, AZI MIC 1), broth microdilution, read-out: MIC): 8 µg/mL (≈ 25.4 µM)
MIC (Neisseria gonorrhoeae; Neisseria gonorrhoeae, N. gonorrhoeae CDC 0166 (CIP-R, AZI MIC 1), broth microdilution, read-out: MIC): 2 µg/mL (≈ 6.36 µM)
MIC (Neisseria gonorrhoeae; Neisseria gonorrhoeae, N. gonorrhoeae CDC 0167 (CIP-S, AZI MIC 8), broth microdilution, read-out: MIC): 1 µg/mL (≈ 3.18 µM)
MIC (Neisseria gonorrhoeae; Neisseria gonorrhoeae, N. gonorrhoeae CDC 0172 (CIP-R, AZI MIC 0.5), broth microdilution, read-out: MIC): 2 µg/mL (≈ 6.36 µM)
MIC (Neisseria gonorrhoeae; Neisseria gonorrhoeae, N. gonorrhoeae CDC 0175 (CIP-S, AZI MIC 16), broth microdilution, read-out: MIC): 2 µg/mL (≈ 6.36 µM)
MIC (Neisseria gonorrhoeae; Neisseria gonorrhoeae, N. gonorrhoeae CDC 0177 (CIP-S, AZI MIC 2), broth microdilution, read-out: MIC): 2 µg/mL (≈ 6.36 µM)
MIC (Neisseria gonorrhoeae; Neisseria gonorrhoeae, N. gonorrhoeae CDC 0181 (CIP-S, AZI MIC 256), broth microdilution, read-out: MIC): 1 µg/mL (≈ 3.18 µM)
MIC (Neisseria gonorrhoeae; Neisseria gonorrhoeae, N. gonorrhoeae CDC 0194 (CRO-NS, CIP-S, AZI MIC 0.5), broth microdilution, read-out: MIC): 2 µg/mL (≈ 6.36 µM)
MIC (Neisseria gonorrhoeae; Neisseria gonorrhoeae, N. gonorrhoeae MMX 6921 (CIP-R), broth microdilution, read-out: MIC): 1 µg/mL (≈ 3.18 µM)
MIC (Neisseria gonorrhoeae; Neisseria gonorrhoeae, N. gonorrhoeae MMX 6938 (CIP-S), broth microdilution, read-out: MIC): 2 µg/mL (≈ 6.36 µM)
MIC (Neisseria gonorrhoeae; Neisseria gonorrhoeae, N. gonorrhoeae MMX 10409 (CIP-R), broth microdilution, read-out: MIC): 2 µg/mL (≈ 6.36 µM)
MIC (Neisseria gonorrhoeae; Neisseria gonorrhoeae, N. gonorrhoeae MMX 10410 (CIP-S), broth microdilution, read-out: MIC): 2 µg/mL (≈ 6.36 µM)
MIC (Neisseria gonorrhoeae; Neisseria gonorrhoeae, N. gonorrhoeae MMX 10447 (CIP-S), broth microdilution, read-out: MIC): 1 µg/mL (≈ 3.18 µM)
MIC (Neisseria gonorrhoeae; Neisseria gonorrhoeae, N. gonorrhoeae MMX 10450 (CIP-S), broth microdilution, read-out: MIC): 0.5 µg/mL (≈ 1.59 µM)
MIC (Neisseria gonorrhoeae; Neisseria gonorrhoeae, N. gonorrhoeae MMX 10452 (CIP-R), broth microdilution, read-out: MIC): 2 µg/mL (≈ 6.36 µM)
MIC (Neisseria gonorrhoeae; Neisseria gonorrhoeae, N. gonorrhoeae MMX 10454 (CIP-R), broth microdilution, read-out: MIC): 1 µg/mL (≈ 3.18 µM)
MIC (Neisseria gonorrhoeae; Neisseria gonorrhoeae, NCTC13477, N. gonorrhoeae NCTC 13477 (WHO F; CIP-S, AZI MIC […]), broth microdilution, read-out: MIC): 0.5 µg/mL (≈ 1.59 µM)
MIC (Neisseria gonorrhoeae; Neisseria gonorrhoeae, NCTC13478, N. gonorrhoeae NCTC 13478 (WHO G; CIP-I, AZI MIC […]), broth microdilution, read-out: MIC): 2 µg/mL (≈ 6.36 µM)
MIC (Neisseria gonorrhoeae; Neisseria gonorrhoeae, NCTC13479, N. gonorrhoeae NCTC 13479 (WHO K; CIP-R, AZI MIC […]), broth microdilution, read-out: MIC): 2 µg/mL (≈ 6.36 µM)
MIC (Neisseria gonorrhoeae; Neisseria gonorrhoeae, NCTC13480, N. gonorrhoeae NCTC 13480 (WHO L; CIP-R, AZI MIC 0.5), broth microdilution, read-out: MIC): 0.5 µg/mL (≈ 1.59 µM)
MIC (Neisseria gonorrhoeae; Neisseria gonorrhoeae, NCTC13481, N. gonorrhoeae NCTC 13481 (WHO M; CIP-R, AZI MIC […]), broth microdilution, read-out: MIC): 1 µg/mL (≈ 3.18 µM)
MIC (Neisseria gonorrhoeae; Neisseria gonorrhoeae, NCTC13482, N. gonorrhoeae NCTC 13482 (WHO N; CIP-R, AZI MIC […]), broth microdilution, read-out: MIC): 2 µg/mL (≈ 6.36 µM)
MIC (Neisseria gonorrhoeae; Neisseria gonorrhoeae, NCTC13483, N. gonorrhoeae NCTC 13483 (WHO O; CIP-S, AZI MIC […]), broth microdilution, read-out: MIC): 2 µg/mL (≈ 6.36 µM)
MIC (Neisseria gonorrhoeae; Neisseria gonorrhoeae, NCTC13484, N. gonorrhoeae NCTC 13484 (WHO P; CIP-S, AZI MIC 4), broth microdilution, read-out: MIC): > 32 µg/mL
MIC (Neisseria gonorrhoeae; Neisseria gonorrhoeae, NCTC13817, N. gonorrhoeae NCTC 13817 (WHO U; CIP-S, AZI MIC 4), broth microdilution, read-out: MIC): 1 µg/mL (≈ 3.18 µM)
MIC (Neisseria gonorrhoeae; Neisseria gonorrhoeae, NCTC13818, N. gonorrhoeae NCTC 13818 (WHO V; CIP-R, AZI MIC >256), broth microdilution, read-out: MIC): 1 µg/mL (≈ 3.18 µM)
MIC (Neisseria gonorrhoeae; Neisseria gonorrhoeae, NCTC13819, N. gonorrhoeae NCTC 13819 (WHO W; CIP-R, AZI MIC 0.5), broth microdilution, read-out: MIC): 1 µg/mL (≈ 3.18 µM)
MIC (Neisseria gonorrhoeae; Neisseria gonorrhoeae, NCTC13820, N. gonorrhoeae NCTC 13820 (WHO X; CRO-NS, CIP-R, AZI MIC 0.5), broth microdilution, read-out: MIC): 2 µg/mL (≈ 6.36 µM)
MIC (Neisseria gonorrhoeae; Neisseria gonorrhoeae, NCTC13821, N. gonorrhoeae NCTC 13821 (WHO Y; CIP-R, AZI MIC 1), broth microdilution, read-out: MIC): 1 µg/mL (≈ 3.18 µM)
MIC50 (Neisseria gonorrhoeae; Neisseria gonorrhoeae, 30 isolates of N. gonorrhoeae, broth microdilution, read-out: MIC50): 2 µg/mL (≈ 6.36 µM)
MIC90 (Neisseria gonorrhoeae; Neisseria gonorrhoeae, 30 isolates of N. gonorrhoeae, broth microdilution, read-out: MIC90): 2 µg/mL (≈ 6.36 µM)
MIC (Neisseria gonorrhoeae; Neisseria gonorrhoeae, 30 isolates of N. gonorrhoeae, broth microdilution, read-out: MIC Mode): 2 µg/mL (≈ 6.36 µM)
MIC [1]: 0.5 µg/mL (≈ 1.59 µM)
